The values below come from patent US12661355B2, “Compounds and methods for inducing UCP1 expression” (The Regents of the University of California, priority 2020, dated 2026).

The subject of experiment [1] is NRVM. Kind of experiment: Respirometry (reserve capacity) in neonatal rat ventricular myocytes. It counts as cell-based. The settings on record: 10 μM Z160 for 24 h following 48 h 100 μM isoproterenol. On the procedure:
Rat H9c2 cells were grown in DMEM supplemented with 10% FBS, 25 mM glucose, 1 mM pyruvate, and 2 mM glutamine Neonatal rat ventricular myocytes (NRVM) were isolated and cultured as previously described. Briefly, 2-4 day old rats were sacrificed and myocytes and fibroblasts were isolated and separated using a Percoll density gradient. Following isolation, NRVMs were plated on gelatin-coated plates in DMEM containing 10% FBS, 25 mM glucose, 1 mM pyruvate, and 2 mM glutamine The next day, FBS was replaced by 1× insulin-transferrin-selenium supplement and the cells were treated with vehicle or 10 μM Z160 for 2 days, with or without 60 μM isoproterenol or 50 μM phenylephrine.
NRVM were seeded in a Seahorse Bioscience XF96 plate and cultured for 48 h in 10% FBS. Next, cells were treated with 100 μM ISO for 48 h, followed by 24 h of 10 μM Z160. Oxygen consumption rate (OCR) was recorded in a Seahorse Bioscience XF96 analyzer before and after the sequential injection of 0.75 μM oligomycin, 0.75 μm FCCP and 0.75 μM rotenone/myxothiazol. Reserve capacity was calculated as the difference between basal respiration and FCCP response.

Experiment [2] addresses T1, AKAP1 (Mus musculus, UniProt O08715).
T1 construct: from tissue; host or cells: mouse brown adipose tissue (BAT) lysate; also mouse brown adipocyte extracts
T1 sequence (O08715 30-857): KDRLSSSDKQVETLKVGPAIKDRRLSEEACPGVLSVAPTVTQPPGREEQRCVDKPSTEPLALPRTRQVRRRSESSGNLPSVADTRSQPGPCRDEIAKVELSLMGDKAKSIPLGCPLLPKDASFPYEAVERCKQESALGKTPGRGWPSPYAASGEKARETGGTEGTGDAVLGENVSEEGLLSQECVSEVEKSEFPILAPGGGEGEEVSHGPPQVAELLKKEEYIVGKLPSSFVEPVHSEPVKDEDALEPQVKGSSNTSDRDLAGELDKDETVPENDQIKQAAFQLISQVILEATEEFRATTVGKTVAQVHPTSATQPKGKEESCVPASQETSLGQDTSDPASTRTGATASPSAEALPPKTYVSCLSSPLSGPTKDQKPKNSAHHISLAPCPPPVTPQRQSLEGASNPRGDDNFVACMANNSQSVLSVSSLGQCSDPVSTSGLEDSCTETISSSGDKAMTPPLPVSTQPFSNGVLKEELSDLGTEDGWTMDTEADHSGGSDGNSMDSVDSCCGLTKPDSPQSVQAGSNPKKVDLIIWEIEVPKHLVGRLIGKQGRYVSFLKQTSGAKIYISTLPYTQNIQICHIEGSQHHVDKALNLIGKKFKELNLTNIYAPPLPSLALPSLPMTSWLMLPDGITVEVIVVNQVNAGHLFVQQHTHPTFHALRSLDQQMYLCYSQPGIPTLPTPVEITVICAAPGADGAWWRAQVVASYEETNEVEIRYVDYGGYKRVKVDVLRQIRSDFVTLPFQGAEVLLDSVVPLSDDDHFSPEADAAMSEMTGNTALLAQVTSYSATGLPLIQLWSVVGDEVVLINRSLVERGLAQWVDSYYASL
Kind of experiment: Cellular Thermal Shift Assay (CETSA) in brown adipocytes, AKAP1. It counts as binding. The settings on record: 10 μM for 8 h, heated at 55.8-63.3° C. The procedure:
CETSA assays were performed according to known methods. Briefly, differentiated brown adipocytes (one 10 cm dish per treatment) were treated with vehicle or compounds, trypsinized, counted, and re-suspended in approximately 450 μl PBS containing protease inhibitors (volumes were adjusted to have the same number of cells in each treatment). For each sample, 18 μl was distributed into each of 7 PCR tubes. Samples were heated using a thermocycler with a temperature gradient (iCycler, Biorad) for 3 min, followed by 3 min at room temperature, and then snap-frozen in liquid N2. After two freeze-thaw cycles, samples were centrifuged at 20,000 g for 15 min at 4° C., and the supernatants were transferred to another set of tubes. Proteins were analyzed by immunoblotting.
The PKA tetramer consists of two catalytic and two regulatory subunits. In the mouse, these are catalytic subunits C-α and C-β, and regulatory subunits RI and RII, each with α and β isoforms (RI-α, RI-β, RII-α, RII-β). […]
The potential interaction of Z160 with PKA subunits and AKAPs was assessed first by identifying which PKA subunits and AKAP isoforms are normally present in BAT. […] To perform the CETSA assays, cultured brown adipocytes were incubated with 10 μM Z160 for 8 h, after which the thermal shift was analyzed by Western blot.

Experiment [3] has as its system UCP1. Put plainly: Gene expression in immortalized human brown adipocytes. It counts as cell-based. As to conditions: 10 μM for 4 days. The procedure:
Human immortalized brown and white preadipocytes were obtained from Dr. Yu-Hua Tseng (Joslin Diabetes Center, Harvard Medical School, USA). The generation of the two cell lines from human neck adipose tissue biopsies and immortalization was performed as previously described but from a different donor. Cells were cultured in high glucose DMEM supplemented with 10% FBS and antibiotics. Two days after reaching confluence, cells were treated with 30 μM biotin, 500 nM insulin, 17 μM pantothenate, 100 nM dexamethasone, 2 nM 3,3′,5-Triiodo-L-thyronine, 500 μM IBMX, 30 μM indomethacin and 1 μM rosiglitazone, for 12 days. Afterwards, cells were treated with 30 μM biotin, 500 nM insulin, 17 μM pantothenate and 2 nM 3,3′,5-Triiodo-L-thyronine (Maintenance media) for 2 days with end-point assays performed on day 18, and for 5 days with end-point assays performed on day 21, for the brown and white adipocytes cells, respectively.
Mouse RNA levels were measured by qPCR according to known methods. Data were normalized to B2m and Tbp reference genes. Human RNA was extracted using an RNA Mini Plus kit (Zymo) and gene expression determined by Taqman assay. The 1-step qPCR was run on a QuantStudio 12K Flex Real Time PCR System (ThermoFisher) using the following protocol: 50° C. for 5 minutes, 95° C. for 20 seconds, 40 cycles of 95° C. for 15 seconds and 60° C. for 60 seconds. […]

Regarding `COc1ccc(NC(=O)CSc2nc3ccccc3c(=O)[nH]2)c(OC)c1` [Z160], in experiment [1], the “effect on isoproterenol-induced reduction in reserve capacity” value was “prevented the ISO-induced reduction in reserve capacity”. In addition, in experiment [2], the “heat stability of AKAP1” value is “increased the heat stability”. In addition, in experiment [3], the CIDEA expression entry is listed as “increased expression” and the UCP1 expression was approximately 7 fold.
